{
  "source": "patent US6046228A",
  "about": "“Anti-viral pharmaceutical compositions containing saturated 1,2-dithiaheterocyclic compounds and uses thereof” (priority 1999, dated 2000)",
  "key": {"HIV-1 ROJO(SI)": {"tested_on": "HIV-1 ROJO(SI)", "experiment": "antiviral assay in PBL (p24), clinical isolate ROJO", "type": "cell-based", "conditions": "Human immunodeficiency virus 1, cell-free p24", "procedure": "Initial anti-HIV screening was performed with CEM-SS cells and HIV-1RFusing the XTT cytoprotection assay as previously described (Weislow et al., J. National Cancer Inst. 81: 577-586, (1989)). HIV-1 isolates included common laboratory stains (RF, IIIB and MN), as well as a panel of HIV-1 clinical isolates (Cushman et al., J. Med. Chem. 37: 3040-3050, (1994)). The pyridone-resistant HIV-1A17 isolate (Nunberg et al., J. Virol., 65: 4887-4892 (1991)) was obtained from Emilio Emini at Merck Sharpe and Dohme Laboratories. Phytohemagglutinin-stimulated human peripheral blood lymphocytes (PBLs) and fresh monocyte-macrophage (Mono/MF) cultures were prepared and utilized in antiviral assays as previously described (Rice et al., Proc. Nat'l. Academy Science, USA 90: 9721-9724, (1993)); (Cushman et al., J. Med. Chem. 37: 3040-3050, (1994)). EC50 values for these cultures indicate the drug concentration that provided a 50% reduction in viral p24 production. […] The compounds can be synthesized according to the teachings of Singh et al., Sulfur Letters 8: 107-114, (1988). The 4,5-cis-dihydroxy(1,1-dioxy-1,2,-dithiohexane) compound (NSC 624151) has been abbreviated as 624151 for convenience. […]"}, "HIV-1 Clade A": {"tested_on": "HIV-1 Clade A", "experiment": "XTT cytopathicity assay, HIV-1 clade", "type": "cell-based", "conditions": "CEM-SS", "procedure": "(§1) Initial anti-HIV screening was performed with CEM-SS cells and HIV-1RFusing the XTT cytoprotection assay as previously described (Weislow et al., J. National Cancer Inst. 81: 577-586, (1989)). HIV-1 isolates included common laboratory stains (RF, IIIB and MN), as well as a panel of HIV-1 clinical isolates (Cushman et al., J. Med. Chem. 37: 3040-3050, (1994)). The pyridone-resistant HIV-1A17 isolate (Nunberg et al., J. Virol., 65: 4887-4892 (1991)) was obtained from Emilio Emini at Merck Sharpe and Dohme Laboratories. Phytohemagglutinin-stimulated human peripheral blood lymphocytes (PBLs) and fresh monocyte-macrophage (Mono/MF) cultures were prepared and utilized in antiviral assays as previously described (Rice et al., Proc. Nat'l. Academy Science, USA 90: 9721-9724, (1993)); (Cushman et al., J. Med. Chem. 37: 3040-3050, (1994)). EC50 values for these cultures indicate the drug concentration that provided a 50% reduction in viral p24 production. […] The compounds can be synthesized according to the teachings of Singh et al., Sulfur Letters 8: 107-114, (1988). The 4,5-cis-dihydroxy(1,1-dioxy-1,2,-dithiohexane) compound (NSC 624151) has been abbreviated as 624151 for convenience. MT-2, MT-4, U1, HeLa-CD4-LTR-β-gal and 174xCEM cells were obtained from the AIDS Research and Reference Program (National Institute of Allergy and Infectious Disease, National Institutes of Health, Bethesda, Md. USA), as were the HIV-2MS and the AZT-resistant HIV-1G910-6 isolates.\n(§2) ^a Anti-HIV studies utilizing lymphocytederived cell lines were\n(§3) performed using the XTT cytopathicity assay, while antiviral assays"}, "HIV-1 Clade B": {"tested_on": "HIV-1 Clade B", "experiment": "XTT cytopathicity assay, HIV-1 clade", "type": "cell-based", "conditions": "CEM-SS", "procedure": "as §1, §2, §3"}, "HIV-1 Clade C": {"tested_on": "HIV-1 Clade C", "experiment": "XTT cytopathicity assay, HIV-1 clade", "type": "cell-based", "conditions": "CEM-SS", "procedure": "as §1, §2, §3"}, "HIV-1 Clade D": {"tested_on": "HIV-1 Clade D", "experiment": "XTT cytopathicity assay, HIV-1 clade", "type": "cell-based", "conditions": "CEM-SS", "procedure": "as §1, §2, §3"}, "HIV-1 Clade F": {"tested_on": "HIV-1 Clade F", "experiment": "XTT cytopathicity assay, HIV-1 clade", "type": "cell-based", "conditions": "CEM-SS", "procedure": "as §1, §2, §3"}, "SIV": {"tested_on": "SIV", "experiment": "XTT cytopathicity assay, other retroviruses", "type": "cell-based", "conditions": "Simian immunodeficiency virus"}, "HIV-1RF": {"tested_on": "HIV-1RF", "experiment": "effect of increasing multiplicity of infection, CEM-SS cells", "type": "cell-based", "conditions": "for EC50: Human immunodeficiency virus 1, CEM-SS", "procedure": "as §1"}, "[1]": {"tested_on": "fusion of cells expressing CD4 and gp120", "experiment": "fusion of target cells expressing CD4 and gp120", "type": "cell-based", "conditions": "in words"}, "HIV-1 protease": {"biological_target": "T1, HIV-1 protease (Human immunodeficiency virus type 1 group M subtype B, UniProt P04585)", "T1 construct": "the purified HIV-1 protease and integrase enzymes", "experiment": "HIV-1 protease activity, reversed phase HPLC assay", "type": "biochemical"}, "HIV-1 integrase": {"biological_target": "T2, HIV-1 integrase (Human immunodeficiency virus type 1 group M subtype B, UniProt P04585)", "T2 construct": "the purified HIV-1 protease and integrase enzymes", "experiment": "HIV-1 integrase activity", "type": "biochemical"}, "U1 cells": {"tested_on": "U1 cells", "experiment": "U1 cell viability (XTT) and cell number", "type": "cell-based", "conditions": "TNF-α stimulated U1 cells, 48 hours, FIG. 3(A)", "procedure": "U1 cells latently infected with two copies of HIV-1 proviral DNA per cell (Clous et al., J. Immunol. 142: 431-438, (1989)) were treated with 5 ng/ml tumor necrosis factor-α(TNF-α) for 24 hours to stimulate production of HIV-1 virions, after which various concentrations of 624151 were added to the cultures and incubated for an additional 48 hours. Cultures were analyzed for cell viability by the XTT reduction assay and cells were counted and scored for viability by trypan blue exclusion. Cells pellets were lysed (0.5% Triton X-100, 300 mM NaCl, 50 mM Tris-HCl, pH 7.6, 10 μg/ml each of Leupeptin and aprotinin (Boehringer Mannheim), 1.8 mg/ml iodoacetamide (Sigma Chemical Co., St. Louis, Mo.) and 1.0 mg/ml the protease inhibitor Pefabloc SC (Boehringer Mannheim at 4° C. for 15 min. and then quantitated for viral p24 content by ELISA. Cell-free supernatant samples were collected and analyzed for virus content by p24 ELISA, and infectivity in cultures of 174xCEM cells. Briefly, serial 1/2 dilutions of the supernatant were placed with 5×10^3 174xCEM cells and cultured for 7 days, cell supernatants were analyzed for viral p24 content, and the number of infectious units/ml calculated. In addition, cell free supernatants were centrifuged at 17,000×g for 1 hour at 4° C. to collect virion pellets. […]"}},
  "data": [
    {"smiles": "O=S1(=O)C[C@H](O)[C@H](O)CS1", "note": "(relative stereo) [NSC 624151, cis-1,1-dioxo[1,2]dithiane-4,5-diol]", "values": [
      {"measurement": "EC50", "setting": "HIV-1 ROJO(SI)", "result": 25, "unit": "µM"},
      {"measurement": "EC50", "setting": "HIV-1 Clade A", "result": 22, "unit": "µM"},
      {"measurement": "EC50", "setting": "HIV-1 Clade B", "result": 5.5, "unit": "µM"},
      {"measurement": "EC50", "setting": "HIV-1 Clade C", "result": 2.9, "unit": "µM"},
      {"measurement": "EC50", "setting": "HIV-1 Clade D", "result": 20, "unit": "µM"},
      {"measurement": "EC50", "setting": "HIV-1 Clade F", "result": 69, "unit": "µM"},
      {"measurement": "EC50", "setting": "SIV", "result": 22, "unit": "µM"},
      {"measurement": "EC50", "setting": "HIV-1RF; MOI 0.01", "result": 8.4, "unit": "µM"},
      {"measurement": "EC50", "setting": "HIV-1RF; MOI 0.02", "result": 17.1, "unit": "µM"},
      {"measurement": "EC50", "setting": "HIV-1RF; MOI 0.04", "result": 16.8, "unit": "µM"},
      {"measurement": "EC50", "setting": "HIV-1RF; MOI 0.08", "result": 27.7, "unit": "µM"},
      {"measurement": "EC50", "setting": "HIV-1RF; MOI 0.16", "result": 21.3, "unit": "µM"},
      {"measurement": "EC50", "setting": "HIV-1RF; MOI 0.32", "result": 21, "unit": "µM"},
      {"measurement": "effect of increasing the MOI on activity", "setting": "HIV-1RF; in words", "result": "relatively resistant to the effects of increasing the viral MOI"},
      {"measurement": "inhibition of fusion", "setting": "[1]", "result": "did not inhibit"},
      {"measurement": "inhibition of HIV-1 protease", "setting": "HIV-1 protease; in words", "result": "not inhibited"},
      {"measurement": "IC50", "setting": "HIV-1 protease; read-out: Protease Activity ID50", "result": "> 100", "unit": "µM"},
      {"measurement": "inhibition of HIV-1 integrase", "setting": "HIV-1 integrase; in words", "result": "not inhibited"},
      {"measurement": "IC50", "setting": "HIV-1 integrase; read-out: Integrase ID50", "result": "> 100", "unit": "µM"},
      {"measurement": "cell viability (XTT) or cell number", "setting": "U1 cells", "result": "did not significantly reduce cell viability (XTT) or cell number"}
    ]}
  ]
}
